According to patent US20220192935A1, “COMPOSITION FOR A TOPICAL APPLICATION ON THE SKIN” (Biodermic Health & Beauty GmbH & Co. KG, priority 2019, published 2022):

System: organisms of the skin flora (Corynebacterium minutissimum, Streptococcus mitis, Staphylococcus epidermidis, Staphylococcus galinarum, Propionibacterium acnes …)
Assay: Investigation of single ingredients for influence on the growth of the organisms of the skin flora
Format: cell-based
Conditions: single ingredient, result in words
Description: The surprising positive effect of the above-described substances or substance groups on the growth of the microorganisms of the skin flora has been confirmed by investigations on microorganisms of the skin flora. Specifically, this involved analyzing the growth of the following species: Corynebacterium minutissimum, Streptococcus mitis, Staphylococcus epidermidis, Staphylococcus galinarum, Propionibacterium acnes, and Malassezia furfur, Malassezia sympodialis, Malassezia globosa and Malassezia restricta. The positive effect can be attributed to the fact that the microorganisms present on the skin cannot make use of the substances investigated. […] Investigations on Corynebacterium minutissimum, Streptococcus mitis, Staphylococcus epidermidis, Staphylococcus galinarum, Propionibacterium acnes, and Malassezia furfur, Malassezia sympodialis, Malassezia globosa and Malassezia restricta have confirmed this effect. The positive effect of these emulsifiers in terms of their influence on the growth of organisms of the skin flora has been confirmed by investigations on Corynebacterium minutissimum, Streptococcus mitis, Staphylococcus epidermidis, Staphylococcus galinarum, Propionibacterium acnes, and Malassezia furfur, Malassezia sympodialis, Malassezia globosa and Malassezia restricta. […]

## Caprylic/Capric Triglyceride
  influence on the growth of the organisms of the skin flora: No growth-promoting influence was detected
